Measured values from paper PMC11383987 (bioRxiv, 2024).

Molecular target: T1, Arabidopsis thaliana PIN8 (Arabidopsis thaliana, UniProt Q9LFP6)
T1 sequence (Q9LFP6 1-367): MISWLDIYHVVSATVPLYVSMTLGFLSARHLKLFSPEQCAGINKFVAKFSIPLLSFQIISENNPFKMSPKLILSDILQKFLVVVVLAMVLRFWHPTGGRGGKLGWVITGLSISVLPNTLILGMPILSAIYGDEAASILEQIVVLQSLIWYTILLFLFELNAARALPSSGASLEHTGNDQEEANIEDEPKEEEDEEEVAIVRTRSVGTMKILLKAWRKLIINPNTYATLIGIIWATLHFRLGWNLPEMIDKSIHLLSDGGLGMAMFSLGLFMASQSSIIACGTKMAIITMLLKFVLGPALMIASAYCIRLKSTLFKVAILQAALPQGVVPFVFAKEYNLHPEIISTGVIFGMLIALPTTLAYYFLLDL
Assay: SSM electrophysiology peak current response, wild-type PIN8 proteoliposomes
Format: biochemical

Compound: O=C(O)c1ccccc1C(=O)Nc1cccc2ccccc12 [NPA, 1-N-naphthylphthalamic acid]
- effect of NPA on current response to 2,4-D (100 μM 2,4D in absence or presence of 20 µM NPA): inhibited
- peak width of SSM current response at various lipid-to-protein ratios (LPR) (LPR10 vs LPR50, variation is consistent with transport): does not change
